In patent US8741836B2, “Polypeptides” (Novo Nordisk A/S, priority 2011, dated 2014):
Starred links: 1 amine or outer side, 2 acyl side, 3 side chain; linkers in the order of their positions; H or OH if unused. Positions of bridges follow the written chain, without caps; N, C: chain ends. Residues, ends and D or L forms follow the SMILES beside them. *: point of attachment. C20 diacid = O=C(O)CCCCCCCCCCCCCCCCCCC(=O)*; γGlu = O=C(O)[C@H](CCC(=O)[*:2])N[*:1]

Assays:
ad libitum fed rat = assay: Assay (I) efficacy testing on appetite (food intake) using an ad libitum fed rat model; type: in vivo, Sprague Dawley (SD) rats
Procedure, shortened: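 Ad libitum fed Sprague Dawley rats, 200-250 g, singly housed on reversed light cycle, got one ip, po or sc dose of 0.01-3 mg/kg just before lights off; groups of 5-8 with vehicle control. Food intake recorded hourly for 7 h, then at 24 h and sometimes 48 h; Grubbs outliers excluded.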

[1] = Assay (III) ThT fibrillation assay for physical stability; type: physicochemical; conditions: for ThT pH 4.0 lag time: pH 4.0, ThT fibrillation assay
Procedure, shortened: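 Freshly prepared, pH-adjusted formulations with 1 μM ThT incubated at 37 °C under 960 rpm orbital shaking (1 mm), fluorescence (ex 444, em 485 nm) read every 20 min. […] Peptide content before and after measured by reverse-phase HPLC against pramlintide standard.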

Row | ThT pH 4.0 lag time [1] | ThT pH 4.0 lag time (physical stability in fibrillogenesis assay) ([1]; pH 4.0) | Structure (SMILES) | Food intake reduction 0-24 h 30 nmol/kg (%) (ad libitum fed rat; 30 nmol/kg, 0-24 h) | Food intake reduction 24-48 h 30 nmol/kg (%) (ad libitum fed rat; 30 nmol/kg, 24-48 h) | Food intake reduction 0-24 h 3 nmol/kg (%) (ad libitum fed rat; 0-24 h) | Food intake reduction 24-48 h 3 nmol/kg (%) (ad libitum fed rat; 24-48 h)
1 | >45 h |  | CC[C@H](C)[C@H](NC(=O)[C@@H]1CCCN1C(=O)CNC(=O)[C@H](Cc1ccccc1)NC(=O)[C@H](CC(N)=O)NC(=O)[C@H](CC(N)=O)NC(=O)[C@H](CO)NC(=O)[C@H](CO)NC(=O)[C@H](Cc1c[nH]cn1)NC(=O)[C@H](CCCNC(=N)N)NC(=O)[C@H](CC(C)C)NC(=O)[C@H](Cc1ccccc1)NC(=O)[C@H](CCC(=O)O)NC(=O)[C@H](C)NC(=O)[C@H](CC(C)C)NC(=O)[C@H](CCCNC(=N)N)NC(=O)[C@H](CCC(N)=O)NC(=O)[C@@H](NC(=O)[C@H](C)NC(=O)[C@@H]1CSSC[C@H](NC(=O)[C@H](Cc2c[nH]cn2)NC(=O)[C@H](Cc2c[nH]cn2)NC(=O)[C@H](Cc2c[nH]cn2)NC(=O)CC[C@H](NC(=O)CCCCCCCCCCCCCCCCCCC(=O)O)C(=O)O)C(=O)N[C@@H](CC(N)=O)C(=O)N[C@@H]([C@@H](C)O)C(=O)N[C@@H](C)C(=O)N[C@@H]([C@@H](C)O)C(=O)N1)[C@@H](C)O)C(=O)N[C@@H](CC(C)C)C(=O)N1CCC[C@H]1C(=O)N1CCC[C@H]1C(=O)N[C@H](C(=O)N[C@@H](CC(N)=O)C(=O)N[C@H](C(=O)NCC(=O)N[C@@H](CO)C(=O)N[C@@H](CC(N)=O)C(=O)N[C@H](C(=O)N[C@@H](Cc1ccc(O)cc1)C(N)=O)[C@@H](C)O)C(C)C)[C@@H](C)O [Example 12, N-alpha-[(S)-4-Carboxy-4-(19-carboxynonadecanoylamino)butyryl]-His-His-[His1,Glu14,Arg17]-pramlintide] ({C20 diacid-γGlu}-HHHCNTATCATQRLAEFLRHSSNNFGPILPPTNVGSNTY-NH2; disulfide 4-9 (inferred)) | 70% | 45% |  | 
2 | >45 h |  | CC[C@H](C)[C@H](NC(=O)[C@@H]1CCCN1C(=O)CNC(=O)[C@H](Cc1ccccc1)NC(=O)[C@H](CC(N)=O)NC(=O)[C@H](CC(N)=O)NC(=O)[C@H](CO)NC(=O)[C@H](CO)NC(=O)[C@H](Cc1c[nH]cn1)NC(=O)[C@H](CCCNC(=N)N)NC(=O)[C@H](CC(C)C)NC(=O)[C@H](Cc1ccccc1)NC(=O)[C@H](CCC(=O)O)NC(=O)[C@H](C)NC(=O)[C@H](CC(C)C)NC(=O)[C@H](CCCNC(=N)N)NC(=O)[C@H](CCC(N)=O)NC(=O)[C@@H](NC(=O)[C@H](C)NC(=O)[C@@H]1CSSC[C@H](NC(=O)[C@H](CCCCN)NC(=O)CC[C@H](NC(=O)CCCCCCCCCCCCCCCCCCC(=O)O)C(=O)O)C(=O)N[C@@H](CC(N)=O)C(=O)N[C@@H]([C@@H](C)O)C(=O)N[C@@H](C)C(=O)N[C@@H]([C@@H](C)O)C(=O)N1)[C@@H](C)O)C(=O)N[C@@H](CC(C)C)C(=O)N1CCC[C@H]1C(=O)N1CCC[C@H]1C(=O)N[C@H](C(=O)N[C@@H](CC(N)=O)C(=O)N[C@H](C(=O)NCC(=O)N[C@@H](CO)C(=O)N[C@@H](CC(N)=O)C(=O)N[C@H](C(=O)N[C@@H](Cc1ccc(O)cc1)C(N)=O)[C@@H](C)O)C(C)C)[C@@H](C)O [Example 50, N-alpha-[(S)-4-Carboxy-4-(19-carboxynonadecanoylamino)butyryl]-[Glu14,Arg17]-pramlintide] ({C20 diacid-γGlu}-KCNTATCATQRLAEFLRHSSNNFGPILPPTNVGSNTY-NH2; disulfide 2-7 (inferred); C-terminus assumed) |  |  | 30% | 8%
3 | >45 h |  | CC[C@H](C)[C@H](NC(=O)[C@@H]1CCCN1C(=O)CNC(=O)[C@H](Cc1ccccc1)NC(=O)[C@H](CC(N)=O)NC(=O)[C@H](CC(N)=O)NC(=O)[C@H](CO)NC(=O)[C@H](CO)NC(=O)[C@H](Cc1c[nH]cn1)NC(=O)[C@H](Cc1c[nH]cn1)NC(=O)[C@H](CC(C)C)NC(=O)[C@H](Cc1ccccc1)NC(=O)[C@H](CCC(=O)O)NC(=O)[C@H](C)NC(=O)[C@H](CC(C)C)NC(=O)[C@H](CCCNC(=N)N)NC(=O)[C@H](CCC(N)=O)NC(=O)[C@@H](NC(=O)[C@H](C)NC(=O)[C@@H]1CSSC[C@H](NC(=O)[C@H](CCCCN)NC(=O)CC[C@H](NC(=O)CCCCCCCCCCCCCCCCCCC(=O)O)C(=O)O)C(=O)N[C@@H](CC(N)=O)C(=O)N[C@@H]([C@@H](C)O)C(=O)N[C@@H](C)C(=O)N[C@@H]([C@@H](C)O)C(=O)N1)[C@@H](C)O)C(=O)N[C@@H](CC(C)C)C(=O)N1CCC[C@H]1C(=O)N1CCC[C@H]1C(=O)N[C@H](C(=O)N[C@@H](CC(N)=O)C(=O)N[C@H](C(=O)NCC(=O)N[C@@H](CO)C(=O)N[C@@H](CC(N)=O)C(=O)N[C@H](C(=O)N1CCC[C@H]1C(N)=O)[C@@H](C)O)C(C)C)[C@@H](C)O [Example 52, N-alpha-[(S)-4-Carboxy-4-(19-carboxynonadecanoylamino)butyryl]-[Glu14,His17,Pro37]-pramlintide] ({C20 diacid-γGlu}-KCNTATCATQRLAEFLHHSSNNFGPILPPTNVGSNTP-NH2; disulfide 2-7) |  |  | 62% | 74%
4 | >45 h | >45 h | CC[C@H](C)[C@H](NC(=O)[C@@H]1CCCN1C(=O)CNC(=O)[C@H](Cc1ccccc1)NC(=O)[C@H](CC(N)=O)NC(=O)[C@H](CC(N)=O)NC(=O)[C@H](CO)NC(=O)[C@H](CO)NC(=O)[C@H](Cc1c[nH]cn1)NC(=O)[C@H](CCCNC(=N)N)NC(=O)[C@H](CC(C)C)NC(=O)[C@H](Cc1ccccc1)NC(=O)[C@H](CCC(=O)O)NC(=O)[C@H](C)NC(=O)[C@H](CC(C)C)NC(=O)[C@H](CCCNC(=N)N)NC(=O)[C@H](CCC(N)=O)NC(=O)[C@@H](NC(=O)[C@H](C)NC(=O)[C@@H]1CSSC[C@H](NC(=O)[C@H](CCCCN)NC(=O)CC[C@H](NC(=O)CCCCCCCCCCCCCCCCCCC(=O)O)C(=O)O)C(=O)N[C@@H](CC(N)=O)C(=O)N[C@@H]([C@@H](C)O)C(=O)N[C@@H](C)C(=O)N[C@@H]([C@@H](C)O)C(=O)N1)[C@@H](C)O)C(=O)N[C@@H](CC(C)C)C(=O)N1CCC[C@H]1C(=O)N1CCC[C@H]1C(=O)N[C@H](C(=O)N[C@@H](CC(N)=O)C(=O)N[C@H](C(=O)NCC(=O)N[C@@H](CO)C(=O)N[C@@H](CC(N)=O)C(=O)N[C@H](C(=O)N1CCC[C@H]1C(N)=O)[C@@H](C)O)C(C)C)[C@@H](C)O [Example 53, N-alpha-[(S)-4-Carboxy-4-(19-carboxynonadecanoylamino)butyryl]-[Glu14,Arg17,Pro37]-pramlintide] |  |  | 40% | 28%
